According to patent US6414004B1 (priority 1998, dated 2002):

test system: HRV-9; experiment: Rhinovirus cytopathic effect reduction in HeLa-Ohio cells (MTT test); format: cell-based; settings: HRV-9, HeLa-Ohio cells

Compound	Concentration inhibiting by 100% viral replication
CSc1noc(-c2ccc(OCCc3ccccc3)cc2)c1C#N [ON-6, 3-Methylthio-5-[4-(2-phenyl-1-ethoxy)-phenyl]-4-isoxazolecarbonitrile]	8 µM

test system: Polio 1 (Brunhilde strain); experiment: not given; format: cell-based; settings: Polio 1, plaque reduction

Compound	Concentration inhibiting by 100% viral replication
CSc1noc(-c2ccc(OCCc3ccccc3)cc2)c1C#N [ON-6, 3-Methylthio-5-[4-(2-phenyl-1-ethoxy)-phenyl]-4-isoxazolecarbonitrile]	0.2 µM
CSc1noc(-c2ccc(OCCCc3ccccc3)cc2)c1C#N [ON-7, 3-Methylthio-5-[4-(3-phenyl-1-propoxy)-phenyl]-4-isoxazolecarbonitrile]	0.4 µM
CSc1noc(-c2ccc(OCCOc3ccc(C)cc3)cc2)c1C#N [ON-12, 3-Methylthio-5-[4-[2-(4-methylphenoxy)ethoxy]phenyl]-4-isoxazolecarbonitrile]	1 µM
CCOC(=O)c1ccc(OCCOc2ccc(-c3onc(SC)c3C#N)cc2)cc1 [ON-13, Ethyl-4-[[2-[4-(3-methylthio-4-cyano-5-isoxazolyl)-phenoxy]-ethyl]-oxy]benzoate]	10 µM

test system: HRV-29; experiment: Rhinovirus cytopathic effect reduction in HeLa-Ohio cells (MTT test); format: cell-based; settings: HRV-29, HeLa-Ohio cells

Compound	Concentration inhibiting by 100% viral replication
CSc1noc(-c2ccc(OCCc3ccccc3)cc2)c1C#N [ON-6, 3-Methylthio-5-[4-(2-phenyl-1-ethoxy)-phenyl]-4-isoxazolecarbonitrile]	2 µM
CSc1noc(-c2ccc(OCCCc3ccccc3)cc2)c1C#N [ON-7, 3-Methylthio-5-[4-(3-phenyl-1-propoxy)-phenyl]-4-isoxazolecarbonitrile]	5 µM

test system: HRV-2; experiment: as above; format: cell-based; settings: HRV-2, HeLa-Ohio cells

Compound	Concentration inhibiting by 100% viral replication
CSc1noc(-c2ccc(OCCc3ccccc3)cc2)c1C#N [ON-6, 3-Methylthio-5-[4-(2-phenyl-1-ethoxy)-phenyl]-4-isoxazolecarbonitrile]	4 µM

test system: ECHO 9 (ATCC: VR-133); experiment: Antiviral activity, direct inhibition of plaque number; format: cell-based; settings: ECHO 9, plaque reduction; read-out: Concentration inhibiting by 100% viral replication

Compound	IC100
CSc1noc(-c2ccc(OCCc3ccccc3)cc2)c1C#N [ON-6, 3-Methylthio-5-[4-(2-phenyl-1-ethoxy)-phenyl]-4-isoxazolecarbonitrile]	0.2 µM
CSc1noc(-c2ccc(OCCCc3ccccc3)cc2)c1C#N [ON-7, 3-Methylthio-5-[4-(3-phenyl-1-propoxy)-phenyl]-4-isoxazolecarbonitrile]	0.2 µM
CSc1noc(-c2ccc(OCCOc3ccc(C)cc3)cc2)c1C#N [ON-12, 3-Methylthio-5-[4-[2-(4-methylphenoxy)ethoxy]phenyl]-4-isoxazolecarbonitrile]	0.06 µM

test system: HEp2 cells; experiment: Cytotoxicity, HEp2 cell proliferation (microscopy, MTT test); format: cell-based; settings: 48-72 h incubation at 37° C.
Protocol: (§1) The cytotoxicity of each substance was determined by direct observation under microscope, and mitochondrial dehydrogenases activities were assayed according to the MTT test (F. Denizot et al., Immunol. Methods, 1986, 89, 271).
(§2) The concentration of compound which, after 48-72 h of incubation at 37° C., inhibited by 50% the cell proliferation was defined as cytotoxic dose 50% (CD50).

Compound	Concentration inhibiting by 50% HEp2 cell proliferation: CD50
CSc1noc(-c2ccc(OCCc3ccccc3)cc2)c1C#N [ON-6, 3-Methylthio-5-[4-(2-phenyl-1-ethoxy)-phenyl]-4-isoxazolecarbonitrile]	> 20 µM
CSc1noc(-c2ccc(OCCCc3ccccc3)cc2)c1C#N [ON-7, 3-Methylthio-5-[4-(3-phenyl-1-propoxy)-phenyl]-4-isoxazolecarbonitrile]	> 25 µM
CSc1noc(-c2ccc(OCCOc3ccc(C)cc3)cc2)c1C#N [ON-12, 3-Methylthio-5-[4-[2-(4-methylphenoxy)ethoxy]phenyl]-4-isoxazolecarbonitrile]	> 25 µM
CCOC(=O)c1ccc(OCCOc2ccc(-c3onc(SC)c3C#N)cc2)cc1 [ON-13, Ethyl-4-[[2-[4-(3-methylthio-4-cyano-5-isoxazolyl)-phenoxy]-ethyl]-oxy]benzoate]	25 µM

test system: HeLa cells; experiment: Cytotoxicity, HeLa cell proliferation (microscopy, MTT test); format: cell-based; settings: 48-72 h incubation at 37° C.
Protocol: as §1, §2

Compound	Concentration inhibiting by 50% HeLa cell proliferation: CD50
CSc1noc(-c2ccc(OCCc3ccccc3)cc2)c1C#N [ON-6, 3-Methylthio-5-[4-(2-phenyl-1-ethoxy)-phenyl]-4-isoxazolecarbonitrile]	> 20 µM
CSc1noc(-c2ccc(OCCCc3ccccc3)cc2)c1C#N [ON-7, 3-Methylthio-5-[4-(3-phenyl-1-propoxy)-phenyl]-4-isoxazolecarbonitrile]	> 25 µM
CSc1noc(-c2ccc(OCCOc3ccc(C)cc3)cc2)c1C#N [ON-12, 3-Methylthio-5-[4-[2-(4-methylphenoxy)ethoxy]phenyl]-4-isoxazolecarbonitrile]	> 25 µM
CCOC(=O)c1ccc(OCCOc2ccc(-c3onc(SC)c3C#N)cc2)cc1 [ON-13, Ethyl-4-[[2-[4-(3-methylthio-4-cyano-5-isoxazolyl)-phenoxy]-ethyl]-oxy]benzoate]	10 µM

test system: HRV-89; experiment: Rhinovirus cytopathic effect reduction in HeLa-Ohio cells (MTT test); format: cell-based; settings: HRV-89, HeLa-Ohio cells

Compound	Concentration inhibiting by 100% viral replication
CSc1noc(-c2ccc(OCCc3ccccc3)cc2)c1C#N [ON-6, 3-Methylthio-5-[4-(2-phenyl-1-ethoxy)-phenyl]-4-isoxazolecarbonitrile]	2 µM
CSc1noc(-c2ccc(OCCCc3ccccc3)cc2)c1C#N [ON-7, 3-Methylthio-5-[4-(3-phenyl-1-propoxy)-phenyl]-4-isoxazolecarbonitrile]	5 µM
CSc1noc(-c2ccc(OCCOc3ccc(C)cc3)cc2)c1C#N [ON-12, 3-Methylthio-5-[4-[2-(4-methylphenoxy)ethoxy]phenyl]-4-isoxazolecarbonitrile]	5 µM

test system: Coxsackie B1 (ATCC: VR-28); experiment: Antiviral activity, direct inhibition of plaque number; format: cell-based; settings: Coxsackie B1, plaque reduction; read-out: Concentration inhibiting by 100% viral replication

Compound	IC100
CSc1noc(-c2ccc(OCCc3ccccc3)cc2)c1C#N [ON-6, 3-Methylthio-5-[4-(2-phenyl-1-ethoxy)-phenyl]-4-isoxazolecarbonitrile]	10 µM
CSc1noc(-c2ccc(OCCCc3ccccc3)cc2)c1C#N [ON-7, 3-Methylthio-5-[4-(3-phenyl-1-propoxy)-phenyl]-4-isoxazolecarbonitrile]	0.6 µM
CSc1noc(-c2ccc(OCCOc3ccc(C)cc3)cc2)c1C#N [ON-12, 3-Methylthio-5-[4-[2-(4-methylphenoxy)ethoxy]phenyl]-4-isoxazolecarbonitrile]	10 µM
CCOC(=O)c1ccc(OCCOc2ccc(-c3onc(SC)c3C#N)cc2)cc1 [ON-13, Ethyl-4-[[2-[4-(3-methylthio-4-cyano-5-isoxazolyl)-phenoxy]-ethyl]-oxy]benzoate]	0.1 µM

test system: HRV-15; experiment: Rhinovirus cytopathic effect reduction in HeLa-Ohio cells (MTT test); format: cell-based; settings: HRV-15, HeLa-Ohio cells

Compound	Concentration inhibiting by 100% viral replication
CSc1noc(-c2ccc(OCCc3ccccc3)cc2)c1C#N [ON-6, 3-Methylthio-5-[4-(2-phenyl-1-ethoxy)-phenyl]-4-isoxazolecarbonitrile]	6 µM

test system: not given; experiment: not given; settings: not given

Compound	melting point
CSc1noc(-c2ccc(OCCCc3ccccc3)cc2)c1C#N [ON-7, 3-Methylthio-5-[4-(3-phenyl-1-propoxy)-phenyl]-4-isoxazolecarbonitrile]	99 to 100 °C
CSc1noc(-c2ccc(OCCOc3ccc(C)cc3)cc2)c1C#N [ON-12, 3-Methylthio-5-[4-[2-(4-methylphenoxy)ethoxy]phenyl]-4-isoxazolecarbonitrile]	139 to 140 °C
CCOC(=O)c1ccc(OCCOc2ccc(-c3onc(SC)c3C#N)cc2)cc1 [ON-13, Ethyl-4-[[2-[4-(3-methylthio-4-cyano-5-isoxazolyl)-phenoxy]-ethyl]-oxy]benzoate]	162 to 164 °C

test system: Measles (Edmonston strain); experiment: Antiviral activity, direct inhibition of plaque number; format: cell-based; settings: Measles morbillivirus, read-out: Concentration inhibiting by 100% viral replication

Compound	IC100
CSc1noc(-c2ccc(OCCc3ccccc3)cc2)c1C#N [ON-6, 3-Methylthio-5-[4-(2-phenyl-1-ethoxy)-phenyl]-4-isoxazolecarbonitrile]	1 µM
CSc1noc(-c2ccc(OCCCc3ccccc3)cc2)c1C#N [ON-7, 3-Methylthio-5-[4-(3-phenyl-1-propoxy)-phenyl]-4-isoxazolecarbonitrile]	10 µM
CSc1noc(-c2ccc(OCCOc3ccc(C)cc3)cc2)c1C#N [ON-12, 3-Methylthio-5-[4-[2-(4-methylphenoxy)ethoxy]phenyl]-4-isoxazolecarbonitrile]	10 µM
CCOC(=O)c1ccc(OCCOc2ccc(-c3onc(SC)c3C#N)cc2)cc1 [ON-13, Ethyl-4-[[2-[4-(3-methylthio-4-cyano-5-isoxazolyl)-phenoxy]-ethyl]-oxy]benzoate]	0.2 µM

test system: HRV-14; experiment: Rhinovirus cytopathic effect reduction in HeLa-Ohio cells (MTT test); format: cell-based; settings: HRV-14, HeLa-Ohio cells

Compound	Concentration inhibiting by 100% viral replication
CCOC(=O)c1ccc(OCCOc2ccc(-c3onc(SC)c3C#N)cc2)cc1 [ON-13, Ethyl-4-[[2-[4-(3-methylthio-4-cyano-5-isoxazolyl)-phenoxy]-ethyl]-oxy]benzoate]	2 µM

test system: HRV-86; experiment: as above; format: cell-based; settings: Enterovirus, HRV86; HRV-86, HeLa-Ohio cells; read-out: Concentration inhibiting by 100% viral replication

Compound	IC100
CSc1noc(-c2ccc(OCCc3ccccc3)cc2)c1C#N [ON-6, 3-Methylthio-5-[4-(2-phenyl-1-ethoxy)-phenyl]-4-isoxazolecarbonitrile]	6 µM
CSc1noc(-c2ccc(OCCCc3ccccc3)cc2)c1C#N [ON-7, 3-Methylthio-5-[4-(3-phenyl-1-propoxy)-phenyl]-4-isoxazolecarbonitrile]	5 µM
CSc1noc(-c2ccc(OCCOc3ccc(C)cc3)cc2)c1C#N [ON-12, 3-Methylthio-5-[4-[2-(4-methylphenoxy)ethoxy]phenyl]-4-isoxazolecarbonitrile]	5 µM
CCOC(=O)c1ccc(OCCOc2ccc(-c3onc(SC)c3C#N)cc2)cc1 [ON-13, Ethyl-4-[[2-[4-(3-methylthio-4-cyano-5-isoxazolyl)-phenoxy]-ethyl]-oxy]benzoate]	1 µM

test system: HRV-70; experiment: as above; format: cell-based; settings: Enterovirus, HRV70; HRV-70, HeLa-Ohio cells; read-out: Concentration inhibiting by 100% viral replication

Compound	IC100
CSc1noc(-c2ccc(OCCc3ccccc3)cc2)c1C#N [ON-6, 3-Methylthio-5-[4-(2-phenyl-1-ethoxy)-phenyl]-4-isoxazolecarbonitrile]	10 µM
CSc1noc(-c2ccc(OCCCc3ccccc3)cc2)c1C#N [ON-7, 3-Methylthio-5-[4-(3-phenyl-1-propoxy)-phenyl]-4-isoxazolecarbonitrile]	5 µM
CSc1noc(-c2ccc(OCCOc3ccc(C)cc3)cc2)c1C#N [ON-12, 3-Methylthio-5-[4-[2-(4-methylphenoxy)ethoxy]phenyl]-4-isoxazolecarbonitrile]	5 µM
CCOC(=O)c1ccc(OCCOc2ccc(-c3onc(SC)c3C#N)cc2)cc1 [ON-13, Ethyl-4-[[2-[4-(3-methylthio-4-cyano-5-isoxazolyl)-phenoxy]-ethyl]-oxy]benzoate]	1 µM

test system: HRV-1B; experiment: as above; format: cell-based; settings: not given

Compound	Concentration inhibiting by 100% viral replication
CSc1noc(-c2ccc(OCCc3ccccc3)cc2)c1C#N [ON-6, 3-Methylthio-5-[4-(2-phenyl-1-ethoxy)-phenyl]-4-isoxazolecarbonitrile]	5 µM
CSc1noc(-c2ccc(OCCCc3ccccc3)cc2)c1C#N [ON-7, 3-Methylthio-5-[4-(3-phenyl-1-propoxy)-phenyl]-4-isoxazolecarbonitrile]	5 µM
